System: HCT116 cells
Test: Cytotoxic activity: tumor cell proliferation assay (Alamar Blue)
Format: cell-based
Conditions: Homo sapiens, HCT-116, 72 h with compound, Alamar Blue readout
Method: The following section describes an assay that can be used to characterize compounds of the invention, e.g., to test for the cytotoxic activity of compounds on cells.
Human tumor cells, e.g., HCT116 cells, are seeded in a 96-well plate at 3.0×10^3 cells/well and grown in 100 μl of RPMI complete media (Invitrogen Corporation, Grand Island, N.Y., USA) containing 10% fetal bovine serum (Hyclone, Logan, Utah, USA) and 10 mM HEPES and at 37° C. for 16 h in an incubator with 5% CO2. To each well, 50 μl of additional growth media containing 20 μM to 60 nM concentrations of compound with 0.2% DMSO is added. Cells are grown for another 72 h at 37° C. 20 μl of Alamar Blue (Trek Diagnostic Systems, Inc., Cleveland, Ohio, USA) reagent is added to each well and incubated for 4 h at 37° C. Plates are read in a SpectraMax Gemini (Molecular Devices, CA, USA) with 544 nm excitation and 590 nm emission wavelength. IC50 values are determined by linear regression analysis of log drug concentration versus percent inhibition.

Row | SMILES | IC50 [nM]
1 | Cc1cccc(C)c1-c1cc(Nc2ccc(Oc3ccnc(C(F)(F)F)c3)cc2)nc(N)n1 [Example 335, 6-(2,6-dimethylphenyl)-N^4-(4-{[2-(trifluoromethyl)pyridin-4-yl]oxy}phenyl)pyrimidine-2,4-diamine] | 62
2 | Cc1cc(Oc2ccc(Nc3cc(-c4ccc(N)nc4)nc(N)n3)cc2)ccn1 [Example 336, 6-(6-aminopyridin-3-yl)-N^4-{4-[(2-methylpyridin-4-yl)oxy]phenyl}pyrimidine-2,4-diamine] | 6
3 | Nc1nc(Nc2ccc(Oc3ccnc(C(F)(F)F)n3)cc2)cc(-c2ccccc2)n1 [Example 338, 6-phenyl-N^4-(4-{[2-(trifluoromethyl)pyrimidin-4-yl]oxy}phenyl)pyrimidine-2,4-diamine] | 17
4 | Nc1nc(Nc2ccc(Oc3ccnc(C(F)(F)F)c3)cc2)cc(-c2cncnc2)n1 [Example 337, N^6-(4-{[2-(trifluoromethyl)pyridin-4-yl]oxy}phenyl)-4,5′-bipyrimidine-2,6-diamine] | 135
5 | Nc1ccc(-c2cc(Nc3ccc(Oc4ccnc(C(F)(F)F)n4)cc3)nc(N)n2)cn1 [Example 339, 6-(6-aminopyridin-3-yl)-N^4-(4-{[2-(trifluoromethyl)pyrimidin-4-yl]oxy}phenyl)pyrimidine-2,4-diamine] | 3
